Results published in article PMC9667546, “Selective Inhibition of Bruton’s Tyrosine Kinase by a Designed Covalent Ligand Leads to Potent Therapeutic Efficacy in Blood Cancers Relative to Clinically Used Inhibitors” (ACS Pharmacology & Translational Science, 2022).
Values joined by “and” are separate entries in the source; they are usually repeats but may differ in a detail not shown here. Identical values can stand only once. Like-named read-outs stand apart in the source and are kept apart here.

Legend:
BMX = target: T1, BMX (Homo sapiens, UniProt P51813); experiment: NanoBRET in-cell target engagement, BMX; assay type: binding
T1 construct: host or cells: HEK296T (so in the source)
T1 sequence (P51813 1-675): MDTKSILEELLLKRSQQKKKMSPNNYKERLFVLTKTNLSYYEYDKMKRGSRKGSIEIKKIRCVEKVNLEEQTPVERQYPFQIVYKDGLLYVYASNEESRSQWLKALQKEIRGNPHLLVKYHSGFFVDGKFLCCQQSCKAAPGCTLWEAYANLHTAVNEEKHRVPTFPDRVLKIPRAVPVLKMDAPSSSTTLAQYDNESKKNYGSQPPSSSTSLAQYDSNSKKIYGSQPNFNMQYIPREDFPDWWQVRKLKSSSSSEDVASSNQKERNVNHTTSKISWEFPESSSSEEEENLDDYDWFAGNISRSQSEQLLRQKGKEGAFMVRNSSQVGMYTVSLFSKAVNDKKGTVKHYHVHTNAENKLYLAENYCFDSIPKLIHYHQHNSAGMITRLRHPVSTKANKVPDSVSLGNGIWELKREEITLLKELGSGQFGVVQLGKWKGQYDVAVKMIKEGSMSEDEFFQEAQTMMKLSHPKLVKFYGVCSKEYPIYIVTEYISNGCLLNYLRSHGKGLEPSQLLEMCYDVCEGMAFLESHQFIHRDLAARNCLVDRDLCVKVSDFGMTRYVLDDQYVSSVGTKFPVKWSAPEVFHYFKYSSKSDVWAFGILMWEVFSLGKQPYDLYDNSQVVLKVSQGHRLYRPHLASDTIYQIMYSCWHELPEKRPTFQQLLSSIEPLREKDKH
Experimental: (§1) In-cell target engagement was performed at Reaction Biology Corporation, using NanoBRET technology. Very briefly, HEK296T cells were transfected and treated in duplicate with JS25 for 1 h of incubation. The compound was diluted 10 times with 3-fold dilution, starting at 1 μM. Curve fits were performed only when the % NanoBret signal at the highest concentration of compounds was less than 55%. The IC50 values were determined using GraphPad Prism 8 ([…]).

EGFR = target: T2, EGFR (Homo sapiens, UniProt P00533); experiment: NanoBRET in-cell target engagement, EGFR; assay type: binding; conditions: HEK296T cells, 1 h incubation, average of duplicates
T2 construct: host or cells: HEK296T (so in the source)
T2 sequence (P00533 25-1210): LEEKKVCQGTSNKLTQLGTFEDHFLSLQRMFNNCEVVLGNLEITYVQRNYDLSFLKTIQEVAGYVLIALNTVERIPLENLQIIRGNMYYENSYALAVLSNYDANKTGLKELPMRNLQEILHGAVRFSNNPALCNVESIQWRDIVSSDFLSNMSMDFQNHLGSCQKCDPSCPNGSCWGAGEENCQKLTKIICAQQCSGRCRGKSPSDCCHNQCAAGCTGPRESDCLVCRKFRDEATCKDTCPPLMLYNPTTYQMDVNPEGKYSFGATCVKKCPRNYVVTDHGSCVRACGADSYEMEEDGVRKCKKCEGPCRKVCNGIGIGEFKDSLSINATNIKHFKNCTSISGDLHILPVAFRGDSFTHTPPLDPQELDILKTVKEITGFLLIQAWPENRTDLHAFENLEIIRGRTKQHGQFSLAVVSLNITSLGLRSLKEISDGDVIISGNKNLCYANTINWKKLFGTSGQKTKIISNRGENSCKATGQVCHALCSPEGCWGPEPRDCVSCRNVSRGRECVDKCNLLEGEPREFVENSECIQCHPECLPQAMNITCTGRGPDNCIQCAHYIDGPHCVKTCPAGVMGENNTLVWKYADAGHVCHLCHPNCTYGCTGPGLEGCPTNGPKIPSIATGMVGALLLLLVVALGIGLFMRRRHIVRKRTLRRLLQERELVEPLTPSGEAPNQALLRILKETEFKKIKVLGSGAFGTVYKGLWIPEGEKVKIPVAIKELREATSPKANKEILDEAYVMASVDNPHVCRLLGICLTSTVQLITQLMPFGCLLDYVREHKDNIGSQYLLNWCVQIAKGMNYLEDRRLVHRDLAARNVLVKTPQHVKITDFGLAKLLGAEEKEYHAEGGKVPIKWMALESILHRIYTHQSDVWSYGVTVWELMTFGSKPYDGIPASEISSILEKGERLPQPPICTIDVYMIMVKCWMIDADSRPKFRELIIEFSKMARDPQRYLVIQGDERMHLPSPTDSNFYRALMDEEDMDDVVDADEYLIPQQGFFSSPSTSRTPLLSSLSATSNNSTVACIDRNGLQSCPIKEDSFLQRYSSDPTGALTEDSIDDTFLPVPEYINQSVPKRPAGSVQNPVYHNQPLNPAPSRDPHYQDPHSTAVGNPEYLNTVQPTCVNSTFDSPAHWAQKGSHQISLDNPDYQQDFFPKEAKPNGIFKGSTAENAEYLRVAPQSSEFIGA
Experimental: as §1

Raji cells (BL) = experiment: Cell viability assay (CellTiter-Glo), Raji; assay type: cell-based; conditions: Homo sapiens, 72 h, n = 3
Experimental: (§2) All cell lines were purchased from ATCC, except for DoHH-2 cells that were obtained from DSMZ. Cells were cultivated in complete DMEM supplemented with 10% (vol/vol) FBS (Gibco) and 1% of penicillin/streptomycin (Gibco). The cells were grown in a humidified atmosphere of 5% CO2 at 37°C, with the medium changed every other day.
(§3) Cells were inoculated at a density of 5000 cells/well. Serially diluted compounds (starting at 50 μM) were added 24 h later. The assay was performed in triplicates. After 72 h of incubation, cellular viability was assessed by CellTiter-Glo (Promega) according to the manufacturer’s instructions. The values were normalized with the vehicle (DMSO), and the IC50 was calculated using GraphPad Prism 8.

DoHH-2 cells (DLBCL) = experiment: Cell viability assay (CellTiter-Glo), DoHH-2; assay type: cell-based; conditions: Homo sapiens, 72 h, n = 3
Experimental: as §2, §3

HBEC-5i cells = experiment: Cell viability assay (CellTiter-Glo), HBEC-5i; assay type: cell-based; conditions: Homo sapiens, 72 h, n = 3
Experimental: as §3
(§4) Human cerebral microvascular endothelial cells (HBEC-5i) were cultured as a monolayer on attachment factor protein solution (AF)-coated T-flasks (Gibco), using DMEM/F12 medium (Gibco), supplemented with 10% FBS, 1% penicillin/streptomycin, and 40.0 μg/mL endothelial cell growth supplement (ECGS, Sigma), according to the manufacturer’s instructions. The capacity of the compounds to cross the brain–blood barrier (BBB) was evaluated using an in vitro HBEC-5i cell model, as previously described.[29] Samples from the apical and basolateral sides were collected, and fluorescence intensity was measured using a Varioskan LUX multimode microplate reader. The retention was considered the difference between the initial fluorescence of compounds (100%) and the aggregated apical and basolateral fluorescence.

HBEC-5i cell model = experiment: In vitro blood–brain barrier permeability (translocation), HBEC-5i cell model; assay type: in vitro ADME, human; conditions: Translocation 24 h, compound 15 μM
Experimental: as §4

Raji cells = experiment: Mice xenograft model of Burkitt’s lymphoma (subcutaneous Raji cells); assay type: in vivo; conditions: for Metastasis volume, Brain, Average / Metastasis volume, Liver, Average / Metastasis volume, Lung, Average / Metastasis volume, Spinal, Average / Secondary tumour, Average: average of 5 animals, stereological analysis; for Metastasis volume, Brain, single animals / Metastasis volume, Liver, single animals / Metastasis volume, Lung, single animals / Metastasis volume, Spinal, single animals / Secondary tumour, single animals: individual animals #1 to #5 in order
Experimental: (§5) Female adult BALB/c/NSG mice were injected subcutaneously with 1 × 10^6 Raji cells, in a 1:1 solution of Matrigel Matrix (Corning) to create solid tumors. When tumors reached 180 mm^3 on average, mice were randomized into four groups (n = 6/group), and dosing began every 2 days. […] Tumor size and body weight were monitored periodically for 12 days. At the end of the experiment, mice necropsies were performed. Stereological analysis was conducted by the Histopathology Unit at Instituto Gulbenkian de Ciência and by the Comparative Pathology Unit at Instituto de Medicina Molecular João Lobo Antunes. Quantification of metastases and cell necrosis was performed in all groups (n = 5/group). Statistical analysis was conducted using one-way ANOVA. The Dunnet test was used to analyze the statistical significance between the treatment groups and the control.

[1] = Body weight in the mice xenograft model; assay type: in vivo; conditions: up to 20 mg/kg i.p. every 2 days
Experimental: as §5

BTK = BTK (Homo sapiens, UniProt Q06187); experiment: NanoBRET in-cell target engagement, BTK; assay type: binding; set-up: purchased Promega Corporation V2941
Sequence of BTK (Q06187 whole entry): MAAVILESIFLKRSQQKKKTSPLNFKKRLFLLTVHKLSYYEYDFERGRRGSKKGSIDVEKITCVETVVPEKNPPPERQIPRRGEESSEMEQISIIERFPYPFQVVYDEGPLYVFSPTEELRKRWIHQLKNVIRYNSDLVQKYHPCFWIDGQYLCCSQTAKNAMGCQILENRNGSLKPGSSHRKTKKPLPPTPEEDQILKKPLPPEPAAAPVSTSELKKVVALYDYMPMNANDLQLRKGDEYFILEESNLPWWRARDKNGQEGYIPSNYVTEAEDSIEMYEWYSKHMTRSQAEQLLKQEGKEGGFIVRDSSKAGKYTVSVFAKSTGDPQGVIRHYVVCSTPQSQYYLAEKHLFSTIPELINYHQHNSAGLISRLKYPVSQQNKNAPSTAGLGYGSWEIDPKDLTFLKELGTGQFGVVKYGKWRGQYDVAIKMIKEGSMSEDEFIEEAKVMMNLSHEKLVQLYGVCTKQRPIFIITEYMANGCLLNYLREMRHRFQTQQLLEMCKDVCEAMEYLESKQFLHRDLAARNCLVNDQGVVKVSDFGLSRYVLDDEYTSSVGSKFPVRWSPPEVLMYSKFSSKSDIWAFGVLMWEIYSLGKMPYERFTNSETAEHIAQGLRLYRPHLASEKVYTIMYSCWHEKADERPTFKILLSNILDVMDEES
Experimental: as §1

BLK = BLK (Homo sapiens, UniProt P51451); experiment: NanoBRET in-cell target engagement, BLK; assay type: binding; set-up: host or cells: HEK296T (so in the source)
Sequence of BLK (P51451 whole entry): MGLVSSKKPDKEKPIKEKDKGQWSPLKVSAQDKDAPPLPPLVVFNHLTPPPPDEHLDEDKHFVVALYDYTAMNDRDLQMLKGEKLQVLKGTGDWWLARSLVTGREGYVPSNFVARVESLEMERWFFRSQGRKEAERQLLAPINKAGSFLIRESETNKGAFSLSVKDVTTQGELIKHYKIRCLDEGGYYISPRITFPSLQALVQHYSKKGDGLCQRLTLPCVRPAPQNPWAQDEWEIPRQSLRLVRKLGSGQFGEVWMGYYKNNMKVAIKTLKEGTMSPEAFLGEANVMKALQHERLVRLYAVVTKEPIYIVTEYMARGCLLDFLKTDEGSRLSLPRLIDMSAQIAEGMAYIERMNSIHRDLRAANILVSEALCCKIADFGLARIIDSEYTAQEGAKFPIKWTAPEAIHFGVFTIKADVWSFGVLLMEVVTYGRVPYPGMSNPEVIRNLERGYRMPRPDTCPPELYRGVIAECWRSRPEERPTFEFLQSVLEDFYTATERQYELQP
Experimental: as §1

Question: Which “selectivity toward BTK relative to BMX” value (BMX) does the source give for C=CC(=O)Nc1cc(C)cc(-n2c(=O)ccc3cnc4ccc(-c5ccc(NS(C)(=O)=O)cc5)cc4c32)c1 [JS25] here?
Answer: Its value is about 2 fold.

Question: What about the IC50 (BMX; HEK296T cells, 1 h incubation, average of duplicates) of the same molecule?
Answer: Its IC50 is 0.049 µM.

Question: What about the “selectivity (kinase/BTK), BMX” value (BMX; IC50 kinase/IC50 BTK) of the same molecule?
Answer: The value was 1.7.

Question: And the IC50 (EGFR)?
Answer: Its IC50 is over 3 µM.

Question: What about the IC50 (Raji cells (BL)) of the same molecule?
Answer: Its IC50 is 2.3 µM.

Question: And the IC50 (DoHH-2 cells (DLBCL))?
Answer: Its IC50 is 0.52 ± 0.02 µM.

Question: And the IC50 (HBEC-5i cells)?
Answer: The IC50 was 23.4 ± 0.98 µM.

Question: What about the “% Fluorescence, Basolateral side (permeability to the BBB)” value (HBEC-5i cell model) of the same molecule?
Answer: Its value is 28.5%.

Question: And the “Metastasis volume, Brain, Average” value (Raji cells; 10 mg/kg)?
Answer: Its value is 1.13 mm³.

Question: And the “Metastasis volume, Liver, Average” value (Raji cells; 10 mg/kg)?
Answer: Its value is 27.34 mm³.

Question: What about the “Metastasis volume, Lung, Average” value (Raji cells; 10 mg/kg) of the same molecule?
Answer: Its value is 26.04 mm³.

Question: What about the “Metastasis volume, Spinal, Average” value (Raji cells; 10 mg/kg) of the same molecule?
Answer: The value was 87.31 mm³.

Question: What about the “Secondary tumour, Average” value (Raji cells; 10 mg/kg) of the same molecule?
Answer: Its value is 16.88 mm³.

Question: And the “Metastasis volume, Brain, single animals” value (Raji cells; 10 mg/kg)?
Answer: Its value is 0.92 mm³ and 0.98 mm³ and 2.33 mm³ and 0.15 mm³ and 1.27 mm³.

Question: What about the “Metastasis volume, Liver, single animals” value (Raji cells; 10 mg/kg) of the same molecule?
Answer: Its value is 0.00 mm³ (2×) and 9.94 mm³ and 83.71 mm³ and 43.05 mm³.

Question: What about the “Metastasis volume, Lung, single animals” value (Raji cells; 10 mg/kg) of the same molecule?
Answer: Its value is 0.00 mm³ (4×) and 130.18 mm³.

Question: What about the “Metastasis volume, Spinal, single animals” value (Raji cells; 10 mg/kg) of the same molecule?
Answer: The value was 18.31 mm³ and 109.42 mm³ and 122.01 mm³ and 88.70 mm³ and 98.09 mm³.

Question: What about the “Secondary tumour, single animals” value (Raji cells; 10 mg/kg) of the same molecule?
Answer: The value was 0.00 mm³ (4×) and 84.38 mm³.

Question: What about the “reduction in percentage of metastases” value (Raji cells; 20 mg/kg i.p. every 2 days, n = 5/group) of the same molecule?
Answer: The value was 70%.

Question: And the “Metastasis volume, Brain, Average” value (Raji cells; 20 mg/kg)?
Answer: The value was 0.26 mm³.

Question: And the “Metastasis volume, Liver, Average” value (Raji cells; 20 mg/kg)?
Answer: Its value is 1.34 mm³.

Question: What about the “Metastasis volume, Lung, Average” value (Raji cells; 20 mg/kg) of the same molecule?
Answer: Its value is 0.00 mm³.

Question: What about the “Metastasis volume, Spinal, Average” value (Raji cells; 20 mg/kg) of the same molecule?
Answer: The value was 27.10 mm³.

Question: What about the “Secondary tumour, Average” value (Raji cells; 20 mg/kg) of the same molecule?
Answer: The value was 37.98 mm³.

Question: What about the “Metastasis volume, Brain, single animals” value (Raji cells; 20 mg/kg) of the same molecule?
Answer: Its value is 0.44 mm³ and 0.03 mm³ and 0.82 mm³ and 0.00 mm³ (2×).

Question: And the “Metastasis volume, Liver, single animals” value (Raji cells; 20 mg/kg)?
Answer: The value was 0.00 mm³ and 2.00 mm³ and 3.35 mm³ and 0.64 mm³ and 0.70 mm³.

Question: What about the “Metastasis volume, Lung, single animals” value (Raji cells; 20 mg/kg) of the same molecule?
Answer: Its value is 0.00 mm³.

Question: And the “Metastasis volume, Spinal, single animals” value (Raji cells; 20 mg/kg)?
Answer: Its value is 36.97 mm³ and 12.59 mm³ and 70.62 mm³ and 14.65 mm³ and 0.69 mm³.

Question: What about the “Secondary tumour, single animals” value (Raji cells; 20 mg/kg) of the same molecule?
Answer: The value was 0.00 mm³ and 91.12 mm³ and 86.92 mm³ and 8.82 mm³ and 3.06 mm³.

Question: What about the “reduction in secondary tumor formation” value (Raji cells; JS25 10 and 20 mg/kg i.p. every 2 days, n = 5/group) of the same molecule?
Answer: Its value is 71–88%.

Question: And the “reduction in solid (subcutaneous) tumor size” value (Raji cells; JS25 10 and 20 mg/kg i.p. every 2 days, relative to control)?
Answer: The value was 30–40%.

Question: What about the “body weight fluctuation by the end of the treatment” value [1] of the same molecule?
Answer: Its value is “no weight fluctuations were observed”.

Question: What about the IC50 (BTK; HEK296T cells, 1 h incubation, average of duplicates, read-out: IC50 (M), BTK) of the same molecule?
Answer: Its IC50 is 2.85e-08 M.

Question: What about the “selectivity (kinase/BTK), BTK” value (BTK; IC50 kinase/IC50 BTK) of the same molecule?
Answer: The value was 1.

Question: What about the IC50 (BTK; NanoBRET value as given in text and Table S3, read-out: IC50, BTK) of the same molecule?
Answer: Its IC50 is 2.8e-08 M.

Question: And the “selectivity for BTK relative to BLK” value (BLK)?
Answer: Its value is 100 fold.

Question: What about the IC50 (BLK; HEK296T cells, 1 h incubation, average of duplicates, read-out: IC50 (M), BLK) of the same molecule?
Answer: Its IC50 is 2.6e-06 M.

Question: And the IC50 (BLK; NanoBRET value as given in Table S3, read-out: IC50, BLK)?
Answer: The IC50 was about 3e-06 M.
